Experimental data as given in patent publication US20240277708A1, “Use of [1,2,4] Triazolo [4,3-B] Pyridazine Derivative For Preventing and Treating Senescence and Senescence-Related Diseases” (The Eighth Affiliated Hospital, Sun Yat-Sen University, priority 2023, published 2024).

Key:
[1] = test system: C57BL/6 mice, CCl4 liver fibrosis model; assay: CCl4-induced liver fibrosis mouse model, collagen staining of liver sections; assay type: in vivo; conditions: 17 mg/kg C1632 after each CCl4 injection
Method: C57BL/6 mice were divided into normal control group, CCl4 group and CCl4+C1632 group, with 7 mice in each group. The mice in the CCl4+C1632 group were injected with 17 mg/kg C1632 for treatment after each injection of CCl4. At the end of the experiment, the mice were sacrificed, and the obtained livers were fixed with 4% paraformaldehyde, dehydrated, embedded and sliced.
1. The collagen fibers in the tissue were stained blue through Masson staining, and the muscle fibers and cytoplasm were stained red through Masson staining. The sections were routinely deparaffinized to water and stained with Weigert's hematoxylin for 5 to 10 minutes. The sections were differentiated with 1% hydrochloric alcohol differentiation solution and washed with water. The sections was returned blue by using Masson bluing solution and washed with water for 1 min. The sections were stained with Ponceau fuchsin staining solution for 5 to 10 min, soaked in 1% glacial acetic acid for a moment, then washed with the phosphomolybdic acid solution for 1 to 2 min. The sections were stained in the aniline blue staining solution for 1 to 2 min after washed with 1% glacial acetic acid for 1 min. The sections were rinsed with 1% glacial acetic acid in three consecutive cylinders for about 8 s, then successively dehydrated by three consecutive cylinders of absolute ethanol for about 5 s, 10 s, and 30 s, and dehydrated by two cylinders of n-butyl alcohol for 30 s and 2 min in turn, and finally permeabilized by two cylinders of xylene for 5 min each time, and sealed with neutral gum.
2. To further verify the effect of C1632 on liver fibrosis, the above tissue sections were subjected to Van Gieson (VG) staining, which was a mature connective tissue staining method to distinguish collagen fibers from muscle fibers. Paraffin sections were deparaffinized into water, and then placed into VG staining solution prepared with acid fuchsin and picric acid, stained for 1 min, quickly washed with water, and quickly dehydrated in three cylinders of absolute ethanol. The sections were placed into xylene for permeabilizing, then sealed with neutral gum and photographed under a microscope.
The sections deparaffinized to water were oxidized with Gordon-Sweets oxidizer for 5 min. After washing with water, the sections were bleached with oxalic acid solution for 1 to 2 min. After washing with distilled water, the sections were mordanted with ferric ammonium sulfate solution for 5 min, then rinsed briefly with water. Gordon-Sweets silver ammonia solution was dropwise added for staining for 3 min. The sections were briefly washed with distilled water, reduced with Gordon-Sweets reducing agent for 1 min and rinsed under running water for 10 min. The nucleus was stained with nuclear fast red staining solution for 5-10 min. […]

[2] = test system: senescent TC-1 cells; assay: T cell killing assay (LDH release) on bleomycin-induced senescent TC-1 cells with immune cells from treated IPF mice; assay type: cell-based, mouse; conditions: ratio 1:50, 4 h
Method: 1, The senescence of TC-1 cells was induced with bleomycin, and the senescence of TC-1 cells was reflected through SA-β-Gal staining (FIG. 4A).
2, T cell killing assay: Bleomycin-induced senescent TC1 cells were plated at 10, 000/well in 96-well plates. The cell culture supernatant was discarded the next day, and then, PBMCS, CD3^+ T cells, and CD8^+ T cells isolated from normal mice, saline treated idiopathic pulmonary fibrosis (IPF) mice and C1632-treated IPF mice were add at a ratio of 1:50. After incubation at 37° C. for 4 h, the supematantwas obtained after centrifugation. LDH enzyme was released from the killed senescent cells, and the killing effect of immune cells on senescent cells was detected by LDH kit. Bleomycin at a dose of 2 mg/kg was sprayed into the lungs of mice to construct IPF mouse model, each group of the above experiments had at least 6 mice.
Isolation and culture of CD8^+ T cells: Mouse spleens were ground under sterile conditions and filtered through a 200-mesh sieve. The filtered cells were sorted by CD8^+ T cell isolation kit (biolegend). The sorted T cells were cultured in PRMI1640 medium containing 10% FBS, 5 μg/mL anti-mouse CD28 antibody (biolegend), and 10 ng/mL IL-2 in the plates coated overnight with 5 μg/mL CD3 antibody (biolegend) until use.

[3] = test system: TERC−/− G4 mice; assay: TERC−/− G4 senescence mouse model: survival and lung immunohistochemistry; assay type: in vivo
Method: Paraffin sections were melted at 65° C. for 1 h, rehydrated by rinsing in xylene for 10 min, xylene for 10 min, absolute ethanol for 3 min, 95% ethanol for 3 min, 85% ethanol for 3 min, 70% ethanol for 3 min and water, followed by two rinses with PBS for 5 min each. The sections were blocked with 3% hydrogen peroxide (in methanol) for 10 min, and then washed twice with PBS for 5 min each time. Then the sections were put into antigen retrieval buffer (pH 6.0) and heat by microwave for 10 min to retrieve antigen, then, slowly cool the solution at room temperature for 1 h, and wash the solution twice with PBS for 5 min each time. The sections were blocked with 10% goat serum for 1 h, incubated overnight with the primary antibodies at 4° C. in the dark, washed twice with PBS for 5 min each time, incubated with the secondary antibodies at room temperature in the dark for 30 min, and washed twice with PBS for 5 min each time. The sections were subjected to DAB color development and hematoxylin staining, and then rinsed in tap water for 8 min to produce a blue color. The sections were dehydrated with gradient alcohol, dried, and sealed with neutral gum.
1, TERC−/−G4 senescence mouse model: Mice had very long telomere length, and it took 3-6 generations of breeding to develop a premature senescence phenotype after telomerase knockout. TERC+/−mice were screened for TERC+/−mice as breeding protection. The first generation of TERC−/− mice was G1 mice. G1 mice were mated with each other to give birth to G2 mice, which continued to reproduce until G4. At this time, mice had very short telomeres and could develop senescence phenotype at 3-4 months of age.
2, Genotype identification of TERC knockout mice: Small segments of tails were cut from the identified mice and digested in 10 mM Tris-HCl 0.5% SDS 1 mM EDTA pH8.0 buffer containing 0.4 mg/mL proteinase K at 65° C. for 2 hours, and then 0.5 μL digestive solution was used as a template for PCR amplification. PCR products which were 250 bp indicated wild-type and 180 bp indicated TERC knockdown.
3, One-month-old G4 mice were given 68 mg/kg C1632 once a week, with 10 mice in each group.
4, Since senescent cells were mainly eliminated by immune cells in vivo, in addition to inhibiting the generation of senescent cells, the inventors also examined the effect of C1632 on the immune microenvironment of senescent lung tissue.

SMILES: CC(=O)N(C)c1cccc(-c2ccc3nnc(C)n3n2)c1 [C1632]
- Collagen fibers in liver tissue, Masson staining ([1]; twice a week for 6 weeks, FIG. 5): can inhibit the expression of collagen fibers induced by CCl4
- Collagen fiber levels in liver tissue, Van Gieson (VG) staining ([1]; FIG. 6): significantly reduces collagen fiber levels
- Reticular fibers in liver tissue, reticular fiber staining ([1]; FIG. 7): can inhibit the expression of reticular fibers induced by CCl4
- Type I collagen production in liver, Sirius red staining ([1]; polarized light, FIG. 8): can significantly inhibit the production of type I collagen
- Killing activity of CD3+ T cells against senescent TC-1 cells (LDH release) ([2]; CD3+ T cells from C1632-treated IPF mice vs saline-treated IPF mice, FIG. 4C): significantly enhanced killing activity
- Killing activity of CD8+ T cells against senescent cells (LDH release) ([2]; CD8+ T cells from C1632-treated IPF mice vs normal mice and saline-treated IPF mice, FIG. 4D): significantly higher
- Killing activity of PBMC against senescent TC-1 cells (LDH release) ([2]; PBMC from C1632-treated IPF mice vs saline-treated IPF mice, FIG. 4B): significantly enhanced killing activity
- Life span of TERC−/− G4 mice ([3]; 68 mg/kg once a week, survival curves FIG. 2A): greatly extended the life span
- Mice still surviving when all control mice had died ([3]; TERC−/− G4 mice, 68 mg/kg once a week from one month of age, 3 and a half months after the experiment, FIG. 2A): 80%
- Immunosuppressive T cell marker FOXP3 in senescent lung tissue (immunohistochemistry) ([3]; lung tissues from senescence mice, FIG. 3): reduces the immunosuppressive T cell marker FOXP3
- Lung tissue senescence (expression of senescence markers p16 and p21, immunohistochemistry) ([3]; lungs of TERC−/− G4 mice, 68 mg/kg once a week, FIG. 2B): significantly inhibited lung tissue senescence
